Results on 6 compounds are retold here after patent US12501900B2, “Heterocyclyl pyridazine as fungicidal compounds” (Bayer Aktiengesellschaft, priority 2018, dated 2025).

What is called inhibition is the change of the read-out against control, counted positive when it falls.

The subject of one data set is Septoria tritici. Briefly: Septoria tritici in vitro cell test. Format: cell-based. The note with it: Zymoseptoria tritici, 168 h; 20 ppm of active ingredient; liquid culture, 7 days incubation; read-out: efficacy (inhibition of fungal growth). As for the experimental part:
(§1) Example: Septoria tritici In Vitro Cell Test • Solvent: DMSO • Culture medium: 14.6 g anhydrous D-glucose (VWR), 7.1 g Bacteriological Peptone (Oxoid), • 1.4 g granulated Yeast Extract (Merck), QSP 1 liter • Inoculum: spore suspension Fungicides were solubilized in DMSO and the solution used to prepare the required range of concentrations. The final concentration of DMSO used in the assay was ≤1%. A spore suspension of Septoria tritici was prepared and diluted to the desired spore density. Fungicides were evaluated for their ability to inhibit spore germination and mycelium growth in liquid culture assay. The compounds were added in the desired concentration to the culture medium with spores. After 7 days incubation, fungi-toxicity of compounds was determined by spectrometric measurement of mycelium growth. Inhibition of fungal growth was determined by comparing the absorbance values in wells containing the fungicides with the absorbance in control wells without fungicides.

The subject of a further data set is Alternaria brassicae. Put plainly: In vivo preventive test on Alternaria brassicae (leaf spot on radish or cabbage). The note with it: 144 h, 500 ppm of active ingredient, preventive spray on radish or cabbage, evaluated 6 days after inoculation, read-out: efficacy. The method, then:
Example: In Vivo Preventive Test on Alternaria brassicae (Leaf Spot on Radish or Cabbage)
(§2) • Solvent: 5% by volume of Dimethyl sulfoxide • 10% by volume of Acetone • Emulsifier: 1 μl of Tween® 80 per mg of active ingredient
(§3) The active ingredients were made soluble and homogenized in a mixture of Dimethyl sulfoxide/Acetone//Tween®80 and then diluted in water to the desired concentration.
The young plants of radish or cabbage were treated by spraying the active ingredient prepared as described above. Control plants were treated only with an aqueous solution of Acetone/Dimethyl sulfoxide/Tween® 80.
After 24 hours, the plants were contaminated by spraying the leaves with an aqueous suspension of Alternaria brassicae spores. The contaminated radish or cabbage plants were incubated for 6 days at 20° C. and at 100% relative humidity.
The test was evaluated 6 days after the inoculation. 0% means an efficacy which corresponds to that of the control plants while an efficacy of 100% means that no disease was observed.

For a further data set, the system named is Alternaria alternata. Briefly: Alternaria alternata in vitro cell test. Format: cell-based. The note with it: 120 h, 20 ppm of active ingredient, liquid culture, 5 days incubation, read-out: efficacy (inhibition of fungal growth). The method, then:
as §1, with “Example: Alternaria alternata” for “Example: Septoria tritici”, “g Mycological” for “g Bacteriological”, “(Oxoid),” for “(Oxoid), •”, “Inoculum: spores” for “Inoculum: spore”, “of A. alternata” for “of Septoria tritici”, “After 5” for “After 7”

Data set [1] in a line: Measurement of LogP values by HPLC on reversed phase columns (EEC directive 79/831 Annex V.A8), methods [a], [b], [c]. It counts as physicochemical. The note with it: HPLC on reversed phase column, method [a]; read-out: Log P. As for the experimental part: Measurement of Log P values as provided herein was performed according to EEC directive 79/831 Annex V.A8 by HPLC (High Performance Liquid Chromatography) on reversed phase columns with the following methods: • ^[a]
If more than one Log P value is available within the same method, all the values are given and separated by “+”.
Lambda-max-values were determined using UV-spectra from 200 nm to 400 nm and the peak values of the chromatographic signals

Data set [2] has as its system Colletotrichum lindemuthianum. Briefly: Colletotrichum lindemuthianum in vitro cell test. Format: cell-based. The settings on record: 144 h, 20 ppm of active ingredient, liquid culture, 6 days incubation, read-out: efficacy (inhibition of fungal growth). As for the experimental part: Example: Colletotrichum lindemuthianum In Vitro Cell Test • Solvent: DMSO • Culture medium: 14.6 g anhydrous D-glucose (VWR), 7.1 g Mycological Peptone (Oxoid), 1.4 g granulated Yeast Extract (Merck), QSP 1 liter • Inoculum: spores suspension Fungicides were solubilized in DMSO and the solution used to prepare the required range of concentrations. The final concentration of DMSO used in the assay was ≤1%. A spore suspension of C. lindemuthianum was prepared and diluted to the desired spore density. Fungicides were evaluated for their ability to inhibit spores germination and mycelium growth in liquid culture assay. The compounds were added in the desired concentration to the culture medium with spores. After 6 days incubation, fungi-toxicity of compounds was determined by spectrometric measurement of mycelium growth. Inhibition of fungal growth was determined by comparing the absorbance values in wells containing the fungicides with the absorbance in control wells without fungicides.

For the next data set, the system named is Botrytis cinerea. Briefly: In vivo preventive test on Botrytis cinerea (grey mould). The note with it: 500 ppm of active ingredient, preventive spray on gherkin or cabbage, evaluated 4 to 5 days after inoculation, read-out: efficacy. The method, then:
Example: In Vivo Preventive Test on Botrytis cinerea (Grey Mould)
as §2, §3
The young plants of gherkin or cabbage were treated by spraying the active ingredient prepared as described above. Control plants were treated only with an aqueous solution of Acetone/Dimethyl sulfoxide/Tween® 80.
After 24 hours, the plants were contaminated by spraying the leaves with an aqueous suspension of Botrytis cinerea spores. The contaminated gherkin plants were incubated for 4 to 5 days at 17° C. and at 90% relative humidity. The contaminated cabbage plants were incubated for 4 to 5 days at 20° C. and at 100% relative humidity.
The test was evaluated 4 to 5 days after the inoculation. 0% means an efficacy which corresponds to that of the control plants while an efficacy of 100% means that no disease was observed.

Another data set concerns Sphaerotheca fuliginea. Briefly: In vivo preventive test on Sphaerotheca fuliginea (powdery mildew on cucurbits). The settings on record: Podosphaera fuliginea, 192 h; 500 ppm of active ingredient; preventive spray on gherkin; evaluated 8 days after inoculation; read-out: efficacy. The method, then: Example: In Vivo Preventive Test on Sphaerotheca fuliginea (Powdery Mildew on Cucurbits)
as §2, §3
The young plants of gherkin were treated by spraying the active ingredient prepared as described above. Control plants were treated only with an aqueous solution of Acetone/Dimethyl sulfoxide/Tween® 80.
After 24 hours, the plants were contaminated by spraying the leaves with an aqueous suspension of Sphaerotheca fuliginea spores. The contaminated gherkin plants were incubated for 8 days at 20° C. and at 70-80% relative humidity.
The test was evaluated 8 days after the inoculation. 0% means an efficacy which corresponds to that of the control plants while an efficacy of 100% means that no disease was observed.

Data set [3] has as its system Colletotrichum lindemuthianum. Put plainly: In vivo preventive test on Colletotrichum lindemuthianum (leaf spot on bean). The settings on record: 168 h, 500 ppm of active ingredient, preventive spray on bean, evaluated 7 days after inoculation, read-out: efficacy. As for the experimental part:
Example: In Vivo Preventive Test on Colletotrichum lindemuthianum (Leaf Spot on Bean)
as §2, §3
The young plants of bean were treated by spraying the active ingredient prepared as described above. Control plants were treated only with an aqueous solution of Acetone/Dimethyl sulfoxide/Tween® 80.
After 24 hours, the plants were contaminated by spraying the leaves with an aqueous suspension of Colletotrichum lindemuthianum spores. The contaminated bean plants were incubated for 24 hours at 20° C. and at 100% relative humidity and then for 6 days at 20° C. and at 90% relative humidity.
The test was evaluated 7 days after the inoculation. 0% means an efficacy which corresponds to that of the control plants while an efficacy of 100% means that no disease was observed.

In another data set the test system is Pyrenophora teres. Briefly: In vivo preventive test on Pyrenophora teres (net blotch on barley). The settings on record: 240 h, 500 ppm of active ingredient, preventive spray on barley, evaluated 10 days after inoculation, read-out: efficacy. The method, then: Example: In Vivo Preventive Test on Pyrenophora teres (Net Blotch on Barley)
as §2, §3
The young plants of barley were treated by spraying the active ingredient prepared as described above. Control plants were treated only with an aqueous solution of Acetone/Dimethyl sulfoxide/Tween®80.
After 24 hours, the plants were contaminated by spraying the leaves with an aqueous suspension of Pyrenophora teres spores. The contaminated barley plants were incubated for 48 hours at 20° C. and at 100% relative humidity and then for 8 days at 20° C. and at 70-80% relative humidity.
The test was evaluated 10 days after the inoculation. 0% means an efficacy which corresponds to that of the control plants while an efficacy of 100% means that no disease was observed.

On to `FC(F)(F)c1cccc(Oc2nnc(Cl)cc2C2=NCC(Cc3ccc(Cl)cc3Cl)N2)c1` (racemic) [I-007, 6-chloro-4-[rac-5-[(2,4-dichlorophenyl)methyl]-4,5-dihydro-1H-imidazol-2-yl]-3-[3-(trifluoromethyl)phenoxy]pyridazine], for which the inhibition at 20 ppm (in the data set on Septoria tritici; with Alternaria alternata; in [2]) was 90 to 100% in each case. Further, the pest or weed control at 500 ppm in the data set on Alternaria brassicae and with Botrytis cinerea was 90 to 100% throughout. Also, the chromatographic logP in data set [1] was 2.39.
For `Cc1cc(C2=NOCC(c3cn(C)c4ccccc34)N2)c(Oc2cccc(C(F)(F)F)c2)nn1` (racemic) [I-011, rac-5-(1-methylindol-3-yl)-3-[6-methyl-3-[3-(trifluoro-methyl)phenoxy]pyridazin-4-yl]-5,6-dihydro-4H-1,2,4-oxadiazine], the inhibition at 20 ppm (with Septoria tritici; with Alternaria alternata; in data set [2]) was 90 to 100% each time. For the same compound, the pest or weed control at 500 ppm is 90 to 100% in the data set with Alternaria brassicae; 90 to 100% in the data set with Sphaerotheca fuliginea; 80 to 89% in data set [3]; 70 to 79% in the data set with Pyrenophora teres; 90 to 100% in the data set with Botrytis cinerea. For the same compound, in [1], the chromatographic logP amounted to 3.23.
Turning to `Cc1ccc(CC2CC(=O)N=C(c3cc(Cl)nnc3Oc3cccc(C4CC4)c3)N2)c(C)c1` (racemic) [I-078, rac-2-[6-chloro-3-(3-cyclopropylphenoxy)pyridazin-4-yl]-6-[(2,4-dimethylphenyl)methyl]-5,6-dihydro-1H-pyrimidin-4-one], the pest or weed control at 500 ppm in the data set with Alternaria brassicae was 90 to 100%; in the data set with Sphaerotheca fuliginea, 80 to 89%; in data set [3] it was 90 to 100%; with Pyrenophora teres, 80 to 89%; with Botrytis cinerea it was 90 to 100%. The inhibition at 20 ppm (in the data set with Alternaria alternata; in data set [2]) was 90 to 100% throughout. The chromatographic logP in data set [1] came out at 4.31.
As to `COc1ccc(C2NC(c3cc(C)nnc3Oc3cccc(C(F)(F)F)c3)=NOC2(F)F)cc1` (racemic) [I-154, rac-6,6-difluoro-5-(4-methoxyphenyl)-3-[6-methyl-3-[3-(trifluoromethyl)phenoxy]pyridazin-4-yl]-4,5-dihydro-1,2,4-oxadiazine], the pest or weed control at 500 ppm (with Alternaria brassicae; in the data set on Sphaerotheca fuliginea; in [3]; in the data set with Pyrenophora teres; in the data set on Botrytis cinerea) was 90 to 100% in each case. Besides, the inhibition at 20 ppm (in the data set with Alternaria alternata; in data set [2]) was 90 to 100% each time. In [1], the chromatographic logP was 3.6.
Regarding `Cc1ccc(CC2CNN=C(c3cc(Cl)nnc3Oc3cccc(C(F)(F)F)c3)N2)c(C)c1` (racemic) [I-173, rac-3-[6-chloro-3-[3-(trifluoromethyl)phenoxy]pyridazin-4-yl]-5-[(2,4-dimethylphenyl)methyl]-1,4,5,6-tetrahydro-1,2,4-triazine], the pest or weed control at 500 ppm (with Alternaria brassicae; in the data set on Sphaerotheca fuliginea; in data set [3]; in the data set with Pyrenophora teres; with Botrytis cinerea) was 90 to 100% in each case. The inhibition at 20 ppm (in the data set on Alternaria alternata; in [2]) was 90 to 100% throughout. The chromatographic logP in [1] stood at 3.31.
Take `FC(F)(F)c1cccc(Oc2nnc(Cl)cc2C2=NOC[C@H](Cc3ccccc3)N2)c1` (single isomer, unassigned) [I-070]: the values for the inhibition at 20 ppm (in the data set on Septoria tritici; with Alternaria alternata; in data set [2]) were 80 to 89%, 90 to 100% and 90 to 100%, respectively. Further, the pest or weed control at 500 ppm (with Alternaria brassicae; in the data set with Sphaerotheca fuliginea; in data set [3]; with Pyrenophora teres; in the data set with Botrytis cinerea) was 90 to 100% throughout. Further, the chromatographic logP in data set [1] turned out to be 3.81.
